From patent US7842671B1, “Peptidomimetic inhibitors of STAT activity and uses thereof” (University of South Florida, priority 2003, dated 2010)

Legend:
[1] = test system: Stat3-dependent luciferase reporter, pLucTKS3; type: cell-based; settings: 1 mM, Src-transformed mouse cells
Excerpt: (§1) Plasmids. The Stat3 reporter, pLucTKS3, driving expression of the firefly luciferase gene and the Stat3-independent plasmid, pRLSRE, containing two copies of the serum response element (SRE) from the c-fos promoter (Turkson, J. et al. (1998); Zhang, Y. et al. (2000)) that drives renilla luciferase gene (Promega; Madison, Wis.) expression, have been previously described (Turkson, J. et al. (2001); Turkson, J. et al. (1999)).
(§2) Cytosolic extract preparation and luciferase assays. Cytosolic extract preparation from fibroblasts and luciferase assays were previously described (Turkson, J. et al. (1998); Turkson, J. et al. (1999)). Briefly, after two washes with PBS and equilibration for 5 min with 0.5 ml PBS-0.5 mM EDTA, cells were scraped off the dishes and the cell pellet was obtained by centrifugation (4,500×g, 2 min, 4° C.). Cells were resuspended in 0.4 ml of low-salt HEPES buffer (10 mM HEPES (pH 7.8), 10 mM KCl, 0.1 mM EGTA, 0.1 mM EDTA, 1 mM phenylmethylsulfonyl fluoride, and 1 mM dithiothreitol) for 15 min, lysed by the addition of 20 μl of 10% Nonidet P-40 (NP-40), and centrifuged (10,000×g, 30 s, 4° C.) to obtain the cytosolic supernatant, which was used for luciferase assays (Promega) measured with a luminometer. […]

[2] = test system: Stat3-independent luciferase reporter, pRLSRE; type: cell-based; settings: 1 mM, Src-transformed mouse cells
Excerpt: as §1, §2

NIH3T3/v-Src [3] = assay: Soft-agar growth of v-Src-transformed fibroblasts; type: cell-based, mouse; settings: 1 mM every 2-3 days
Method: (§3) Cell proliferation, soft-agar growth and Apo-BrdU labeling studies. Proliferating fibroblasts and human tumor cells were counted by phase-contrast microscopy for viable cells (using tyrpan blue exclusion). Colony formation assays in six-well dishes and quantification of colonies by iodonitrotetrazolium violet have been previously described (Turkson, J. et al. (1999)). Treatment of cells with inhibitors was initiated 1 day after seeding cells by adding 75 μl of medium with or without inhibitor, and repeated every two to three days. Apoptosis was measured by Apo-BrdU labeling and following the supplier's (PharMingen; San Diego, Calif.) instructions.
Previous studies with PY*LKTK-MTS (SEQ ID NO. 1) (Turkson, J. et al., 2001)) confirmed that inhibition of constitutive Stat3 activation blocks Src transformation (Turkson, J. et al. (1998); Turkson, J. et al., (1999); Bromberg, J. R. et al. (1998)).

NIH3T3 [4] = assay: Apo-BrdU labeling and flow cytometry for apoptotic cells; type: cell-based, mouse; settings: NIH3T3, 1 mM, 48 h, flow cytometry
Method: as §3
(§4) Because one of the functions of Stat3 is to protect transformed or tumor cells from apoptosis (Catlett-Falcone, R. et al. (1999b); Epling-Burnette, P. K. et al. (2001); Grandis, J. R. et al. (2000); Bowman, T. et al. (2000b); Bromberg, J. F. et al. (1999)), the ability of peptidomimetics of the invention (and PY*LKTK-MTS for comparison) (SEQ ID NO. 1) to induce apoptosis in Stat3-dependent transformed fibroblasts was evaluated. Viral Src-transformed NIH3T3/v-Src fibroblasts were treated with or without compounds for 48 h. Treated cells were then labeled with Apo-BrdU (PharMingen; San Diego, Calif.) for detection of DNA breaks.

NIH3T3/v-Src [5] = assay: as above; type: cell-based, mouse; settings: 48 h
Method: as §3, §4

NIH3T3 [6] = type: cell-based, mouse; settings: 1 mM, normal NIH3T3 cells
Method: as §3
(§5) Stat3 has an essential role in cell proliferation, and constitutively-active Stat3 is required for growth of transformed and tumor cells that harbor aberrant Stat3 signaling. Studies were performed to determine the effects of the peptidomimetic-mediated inhibition of Stat3 on cell proliferation using trypan blue exclusion for viable cell counts.

NIH3T3/v-Ras = type: cell-based, mouse; settings: 1 mM
Method: as §3, §5

NIH3T3/v-Src [7] = type: cell-based, mouse; settings: 1 mM, four days
Method: as §3, §5

Stat3 = target: T1, Stat3 (Homo sapiens, UniProt P40763); type: cell-based
T1 construct: endogenous in cells; host or cells: A549, MDA-MB-231, MDA-MB-435, MDA-MB-468
T1 sequence (P40763 whole entry): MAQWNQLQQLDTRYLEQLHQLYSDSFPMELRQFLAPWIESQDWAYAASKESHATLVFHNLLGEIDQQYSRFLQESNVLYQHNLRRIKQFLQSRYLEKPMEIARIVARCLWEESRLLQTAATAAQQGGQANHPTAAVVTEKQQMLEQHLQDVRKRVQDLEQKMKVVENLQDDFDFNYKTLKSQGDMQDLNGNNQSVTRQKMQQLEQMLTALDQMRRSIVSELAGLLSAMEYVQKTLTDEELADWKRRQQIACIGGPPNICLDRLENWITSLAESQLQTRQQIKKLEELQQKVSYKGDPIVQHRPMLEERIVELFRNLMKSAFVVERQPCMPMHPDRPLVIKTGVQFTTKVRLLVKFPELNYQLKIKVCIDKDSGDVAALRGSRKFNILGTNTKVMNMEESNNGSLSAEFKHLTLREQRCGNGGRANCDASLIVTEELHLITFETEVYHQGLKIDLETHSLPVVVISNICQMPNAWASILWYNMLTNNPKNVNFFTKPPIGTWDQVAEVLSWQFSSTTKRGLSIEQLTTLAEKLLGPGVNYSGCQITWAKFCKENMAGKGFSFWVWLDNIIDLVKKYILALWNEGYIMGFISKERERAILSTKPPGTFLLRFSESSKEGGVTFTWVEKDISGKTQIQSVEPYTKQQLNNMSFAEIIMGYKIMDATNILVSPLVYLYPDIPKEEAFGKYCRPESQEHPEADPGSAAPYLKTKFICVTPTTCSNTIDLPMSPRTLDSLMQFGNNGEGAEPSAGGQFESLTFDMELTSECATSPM
Method: Nuclear extract preparation and gel shift assays. Nuclear extracts were prepared from cell lines and used for electrophoretic mobility shift assay (EMSA) as previously described (Garcia, R. et al. (1997); Yu, C. L. et al. (1995); Turkson, J. et al. (1998)). In some cases, cells were pre-treated with peptidomimetics for the indicated times (12-48 h) prior to harvesting for nuclear extract preparation. In other studies, nuclear extracts were pre-incubated with peptidomimetics for 30 min at room temperature prior to incubation with radiolabeled probe. The ^32P-radiolabeled oligonucleotide probes used are hSIE (high affinity sis-inducible element, m67 variant, 5′-[…]-3′) (SEQ ID NO. 3) that binds both Stat1 and Stat3 (Garcia, R. et al. (1997); Wagner B. J. et al. (1990)) and MGFe (mammary gland factor element from the bovine β-casein gene promoter, 5′-[…]-3′) (SEQ ID NO. 4) that binds Stat1 and Stat5 (Gouilleux, F. et al. (1995); Seidel, H. M. et al. (1995)).

SMILES: CC(C)CC(NC(=O)C(Cc1ccc(OP(=O)(O)O)cc1)NC(=O)c1ccc(C#N)cc1)C(=O)O (centres unmarked) [ISS 610]
- transcriptional induction of the Stat3-dependent luciferase reporter pLucTKS3 [1]: significant suppression
- induction of the Stat3-independent luciferase reporter pRLSRE [2]: no effect
- growth in soft-agar suspension (NIH3T3/v-Src [3]): significantly suppressed
- percent of apoptotic cells (NIH3T3 [4]): 0.3%
- percent of apoptotic cells (NIH3T3/v-Src [5]; NIH3T3/v-Src, 1 mM, Apo-BrdU, flow cytometry): 21.4%
- incorporated BrdUTP compared to controls (in words) (NIH3T3/v-Src [5]; Src-transformed fibroblasts): dramatic increases in incorporated BrdUTP
- cell proliferation (NIH3T3 [6]): no effect on cell proliferation
- cell proliferation (NIH3T3/v-Ras): no effect on cell proliferation
- cell proliferation (NIH3T3/v-Src [7]): significantly suppresses proliferation
- Stat3 activation in breast carcinoma cells (EMSA) (Stat3): time-dependent reduction of Stat3 activation
- Stat3 activation in human non-small cell lung carcinoma cells (EMSA) (Stat3): time-dependent reduction of Stat3 activation
